Patent US20190345505A1, “METHODS FOR REGULATING EXTRACTABLE PROANTHOCYANIDINS (PAS) IN PLANTS BY AFFECTING LEUCOANTHOCYANIDIN REDUCTASE (LAR)” (University of North Texas, priority 2016, published 2019)

What was measured:
[1] = test system: mutated LAR (LAR/K143G); experiment: Conversion of 4β-(S-cysteinyl)-epicatechin to epicatechin by mutated LAR (negative control); type: biochemical, Medicago truncatula; settings: 40 μM substrate, 50 μM NADPH, 5 μg protein, 1 h, room temperature
Experimental: The full length LAR cDNA was cloned into pMal-c5x vector (New England Biolab) at the XmnI and BamHI sites. Mutations, which convert the lysine 143 codon to a glycine codon, were introduced into LAR cDNA by over-lapping PCR. The expression constructs were transformed into E. coli strain Rosetta™ 2(DE3)pLysS (EMD Millipore) competent cells. Transformed bacteria were grown in LB medium supplemented with 0.2% glucose to OD 600 of 0.5, and IPTG was added at 0.3 mM to induce protein expression. Bacteria were harvested after 4 h induction. LAR proteins were purified with amylose resin (NEB, E8021) following the manufacturer's protocol. Briefly, bacteria were lysed by sonication at 4° C. in extraction buffer (20 mM Tris pH 7.0, 200 mM NaCl, 1 mM DTT, 1 mM PMSF). […]
The above analyses indicate that the 21 minute fraction above contains cysteine and glucuronic acid conjugates of epicatechin, as well as a glucoside conjugate of epicatechin cysteine. Of these compounds, epicatechin cysteine was determined to be the best candidate for being a substrate for LAR. […] The ethyl acetate extract was dried under vacuum, dissolved in 50 μL water and analyzed by UPLC/MS.
Reactions without NADPH or LAR, with NADP^+, and with mutated LAR (LAR/K143G) were run in parallel as negative controls. Reactions were analyzed by UPLC/MS in negative mode. […] Epicatechin-cysteine content was quantified by EIC. […]

[2] = DMACA reactivity; type: physicochemical; settings: Five μL of 1 mM compound added to 200 mL 0.2% DMACA stain solution
Experimental: Seeds of the lar mutant accumulated more than twice the level of 4β-(S-cysteinyl)-epicatechin than wild-type plants (FIGS. 14B and 14C), whereas none was detected in the anr mutant, and MYB5 over-expressing hairy roots accumulated more than three times the level of epicatechin-cysteine found in MYB14 over-expressing hairy roots. […] DMACA reactivity of epicatechin-cysteine was also measured. Five μL of 1 mM epicatechin or epicatechin-cysteine were added to 200 mL 0.2% DMACA stain solution. OD values of absorbance at 640 nm were measured as: Epicatechin=OD 0.71, Epicatechin-cysteine=OD 0.34, and Blank=OD 0.05. Epicatechin-cysteine reacted with DMACA reagent to produce a less intense blue color than epicatechin, consistent with the weak DMACA staining of lar mutant seeds.

[3] = biological target: T1, LAR from Desmodium uncinatum (Desmodium uncinatum, UniProt Q84V83); settings: Tanner et al. 2003; read-out: reported Km of LAR towards leucocyanidin; cited from earlier work
T1 sequence (Q84V83 1-382): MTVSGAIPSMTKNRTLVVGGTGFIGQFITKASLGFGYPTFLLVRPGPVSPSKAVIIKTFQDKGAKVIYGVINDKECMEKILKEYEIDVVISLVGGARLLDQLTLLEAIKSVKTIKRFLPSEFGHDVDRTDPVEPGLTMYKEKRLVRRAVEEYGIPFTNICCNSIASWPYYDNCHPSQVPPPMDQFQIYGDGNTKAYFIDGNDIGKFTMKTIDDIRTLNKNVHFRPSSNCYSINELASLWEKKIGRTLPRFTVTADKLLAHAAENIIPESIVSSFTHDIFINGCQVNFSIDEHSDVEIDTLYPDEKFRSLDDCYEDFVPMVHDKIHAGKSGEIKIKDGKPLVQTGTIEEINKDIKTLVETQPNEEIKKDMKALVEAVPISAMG

SMILES: N[C@@H](CS[C@H]1c2c(O)cc(O)cc2O[C@H](c2ccc(O)c(O)c2)[C@@H]1O)C(=O)O [4β-(S-cysteinyl)-epicatechin]
- activity of mutated LAR on substrate (epicatechin formation, UPLC/MS) [1]: no activity
- OD values of absorbance at 640 nm (DMACA reactivity) [2]: 0.34 OD

SMILES: Oc1cc(O)c2c(c1)OC(c1ccc(O)c(O)c1)C(O)C2O (stereo not drawn) [leucocyanidin]
- Km [3]: 6 µM
